Reference: US5696239A (The Dow Chemical Company, priority 1995, dated 1997)
Each block holds one compound with its values, some of them ahead of it.

Key:
[1] = Complex study: percent yttrium complex after addition of excess metal (lability); type: physicochemical
Procedure: (§1) A disposable 10 ml plastic (Biorad) column was filled with 1 to 2 ml of water-swelled Sephadex™ C-25 cation exchange resin. The water was pressure eluted to the top of the resin. Fifteen μl of the complex (or more if counts were low) were added to the top of the resin. This was followed by 2 ml of 4:1 (V:V) isotonic saline:conc. ammonium hydroxide solution as an eluent which was allowed to drip into a counting tube. This was also pressure eluted to the top of the resin. An additional 2 ml of the eluent were added and the column pressure eluted to remove all liquid. The dried resin was then placed in a third counting tube and the three tubes counted on a NaI well counter using a Canberra multichannel analyzer linked to a computer. The percent complex was determined by dividing the number of counts in the two elutions by the total counts in the elutions plus the column, all times 100. By this method, uncomplexed yttrium was retained on the column.
The 1:1 complex of yttrium with 1-(p-aminobenzyl)diethylenetriaminepentaacetic acid (ABDTPA), a well known bifunctional chelant used in the literature, and with the ligand of Example 2 (Now Ex. XVI) and Example 12 (now Ex. XVII) were prepared using the techniques described earlier. Several 100 microliter aliquots were then withdrawn into separate centrifuge tubes. Excess metal was added such that the total volume change is minimized and the time noted. One-half hour after metal addition, the percent complex was determined by the Sephadex™ C-25 method and this was compared to the original amount of complex. The percent complex versus added metal gives an indication as to the lability of the ligand-metal complex. Results are given below and are compared to the EDTA-yttrium complex.

[2] = Challenge of antibody-complex conjugates with excess DTPA (inertness); type: physicochemical; conditions: 1000 fold molar excess DTPA, pH 7.4, one hour; CC-46 conjugate of Y-90 complex
Procedure: The purified antibody-complexes were added to HEPES buffer (N-2-hydroxyethylpiperazine-N'-2-ethanesulfonic acid) at pH 7.4 and treated with an appropriate amount of 0.1M DTPA solution (pH 7.4) to ensure a 1000 fold molar excess of DTPA over complex attached to antibody. After one hour an aliquot was removed and the antibody-complex conjugates were separated from low molecular weight substances using gel-filtration.

[3] = Percent complex determination, yttrium complexes (Sephadex C-25 cation exchange); type: physicochemical; conditions: for % Complex (10:1), Y: ligand/metal 10:1, pH 7.4
Procedure: Complexes were made by preparing a 0.0003M yttrium solution in water. (YCl3.6H2 O, 303.26 g/mole; Y(OAc)3, 12.1% H2 O). Radioactive YCl3 (Oakridge National Laboratories) was added to give the desired number of counts. Ten μl of ligand solution (at 0.03M) were added to 990 μl of the Y solution, giving a ligand-to-metal ratio of 1:1. (Ten times the amount of ligand solution was used for a 10:1 ligand to metal ratio.) The pH was then adjusted to 7.4 using microliter quantities of hydrochloric acid or sodium hydroxide. The solution was then tested for the amount of complexed yttrium using the cation exchange method given below.
as §1

[4] = Percent complex determination, samarium complexes (Sephadex C-25 cation exchange); type: physicochemical; conditions: samarium
Procedure: as §1, with “100.” for “100. By this method, uncomplexed yttrium was retained on the column.”
Percent complex determination was made in the same manner as for the yttrium complex.

[5] = Biodistribution in a rabbit; type: in vivo; conditions: Y-90, ligand 10 times molar excess
Procedure: Muscle was calculated using 46% of body weight.
A rabbit was injected in the same manner as the rats with a formulation having Y-90 with Y at 3×10^-4 M and the ligand of Example 10 at 10 times molar excess.

[6] = test system: osteosarcoma in the right proximal humerus; experiment: Treatment of a dog with osteosarcoma; type: in vivo; conditions: Sm-153 complex, ligand 300 times molar excess; I.V. 0.95 mCi Sm-153 per Kg; one week after injection
Procedure: A dog was presented with an osteosarcoma in the right proximal humerus and walked with significant lameness. A complex was prepared using the ligand of Example 10 with a Sm-153 solution. The concentration of Sm was 3×10^-4 M and the ligand was used with a 300 times molar excess. The specific activity of the Sm-153 was 30 mCi/ml. The dog was given an I.V. injection of this complex containing 0.95 mCi of Sm-153 per Kg body weight of the dog.

[7] = In vivo biodistribution of chelates in rats (% dose in organs); conditions: rat; for % Injected Dose in Liver: 2 hours after i.v. injection; for % dose in the spleen / % dose in the bone / % dose in the blood / % dose in the muscle: 2 hours; for % dose in the bone: 25 times % dose in a femur; for % dose in the blood: blood 6.5% of animal weight; for % dose in the muscle: muscle 46% of body weight
Procedure: Also samarium was injected as samarium chloride in unchelated form.
These animals were placed in cages and fed water and food ad libitum. The animals were acclimated for at least five days before use. Prior to injection of complex, the animals were placed under a heat lamp (15 to 30 minutes) to dilate the tail vein. Then, the animal was placed in a restraining cage, the tail cleaned with an alcohol swipe, and the animal injected (50 to 200 μl) via the tail vein. After injection, the animal was placed in another cage for two hours after which time the animal was sacrificed by cervical dislocation. The animal was then dissected, the parts rinsed with deionized H2 O , patted dry, and weighed into a tared counting vial. Whatever size of injection was made, at least three standards of the same material were prepared and counted with the animal parts.
Complexes were prepared by mixing a solution of ligand and metal then adjusting the pH to 7-8. The amount of metal that was complexed to ligand was determined by cation exchange chromatography. Free metal was retained by the resin, metal in the form of a complex was not.
One-hundred μl of the complexes were injected into the tail vein of three Sprague Dawley rats. Two hours after injection, the rats were killed by cervical dislocation and samples of tissues were taken. The tissues were weighed and the amount of radiation in each tissue determined by measuring the number of counts using a NaI well counter and comparing them to standards. […] The amount in bone was 25 times the % dose in a femur. The examples below differ in the ligand, amount of ligand and amount of metal used. Non-radioactive metal was used to obtain the desired ligand to metal ratios and tracer radioactive metal was used to obtain the biodistribution.

[8] = metal/ligand molar ratio 250, one-half hour after metal addition
[9] = metal/ligand molar ratio 500, one-half hour after metal addition
[10] = ligand/metal ratio about 1:1 (* footnote)
[11] = Ho-166, ligand 300 times molar excess
[12] = Sm-153, ligand 10 times molar excess
[13] = Sm-153, ligand 300 times molar excess

% Complex ([1]; metal/ligand molar ratio 10, one-half hour after metal addition): 95% | % Complex [1, 8]: 87% | % Complex [1, 9]: 70%
SMILES: Nc1ccc(CC(CN(CCN(CC(=O)O)CC(=O)O)CC(=O)O)N(CC(=O)O)CC(=O)O)cc1 (stereo not shown) [ABDTPA, 1-(p-aminobenzyl)diethylenetriaminepentaacetic acid]
yttrium lost from antibody-complex conjugate [2]: over 98%

% Complex (10:1), Y [3]: 99% | % Complex, Y [3, 10]: 98% | % Complex (10:1), Sm ([4]; ligand/metal 10:1): 98% | % Complex, Sm [4, 10]: 98% | % Complex [1, 8]: 90% | % Complex [1, 9]: 79%
SMILES: Nc1cc(CN(CCN(CC(=O)O)CC(=O)O)CC(=O)O)c(O)c(CN(CCN(CC(=O)O)CC(=O)O)CC(=O)O)c1 [Example 12]
yttrium lost from antibody-complex conjugate [2]: approximately 39%

SMILES: CC(=O)Nc1cc(C(C(=O)O)N(CC(=O)O)CC(=O)O)c(O)c(C(C(=O)O)N(CC(=O)O)CC(=O)O)c1 (stereo not shown) [Example 10, 2,6-BIS{[BIS(CARBOXYMETHYL)-AMINO](CARBOXY)METHYL}-4-(ACETAMIDO)PHENOL]
% Complex (10:1), Y [3]: 98% | activity in blood [5]: 0.68% | activity in bone [5]: 59% | activity in liver [5]: 1.1% | activity in muscle [5]: 1.5% | activity in spleen [5]: 0.19% | dog's gait [6]: noticeably improved | % Injected Dose in Liver ([7]; Ho complex, ligand 300 times molar excess): 0.26% | % dose in the spleen [7, 11]: 0.007% | % dose in the bone [7, 11]: 52.9% | % dose in the blood [7, 11]: 0.09% | % dose in the muscle [7, 11]: 1.1% | % Injected Dose in Liver ([7]; Sm complex, ligand 300 times molar excess): 0.12% | % Injected Dose in Liver ([7]; Sm complex, ligand/metal 10:1): 1.3% | % dose in the spleen [7, 12]: 0.01% | % dose in the bone [7, 12]: 48.5% | % dose in the blood [7, 12]: 0.18% | % dose in the muscle [7, 12]: 0.73% | % dose in the spleen [7, 13]: 0.005% | % dose in the bone [7, 13]: 52.7% | % dose in the blood [7, 13]: 0.05% | % dose in the muscle [7, 13]: 0.23% | % Injected Dose in Liver ([7]; Y complex, ligand/metal 10:1): 0.39%
